{"source": "patent US20190169218A1", "about": "“AMPHIPATHIC COMPOUND HAVING NOVEL PENTA-SACCHARIDE HYDROPHILIC GROUP AND USE THEREOF” (Industry-University Cooperation Foundation Hanyang …, priority 2016, published 2019)", "key": {"[1]": {"test_system": "T4L-β2AR-Gs or β2AR-Gs complexes", "conditions": "purified by DDM, 4° C., reported in the prior art; cited from earlier work"}, "[2]": {"test_system": "T4L-β2AR-Gs or β2AR-Gs complexes", "assay": "purification and stability of T4L-β2AR-Gs or β2AR-Gs complexes (analytical gel filtration, negative staining EM)", "parameters": "species or system human", "description": "The ability of PSE-C11 or TPS-E10L to purify and stabilize T4L-β2AR-Gs or β2AR-Gs complexes was measured using electron microscopy (EM) analysis.\nSpecifically, measurement of the ability of PSE-C11 for TPS-E10L to purify and stabilize T4L-β2AR-Gs or β2AR-Gs complexes was performed as follows. 100 μM T4L-β2AR solubilized in 0.1 wt % DDM was mixed with 120 μM Gs heterotrimers for 30 minutes. 0.5 units of apyrase (NEB) and 2 mM MgCl2 were added to the mixture, followed by a 1-hour incubation to form complexes. 1 wt % PSE-C11 or TPS-E10L was respectively added to the mixture to achieve a final concentration of 0.8%, and incubated for 30 minutes to allow DDM to be exchanged with PSE-C11 or TPS-E10L. […] Finally, proteins were eluted with a 0.05% (100×CMC) PSE-C11 or TPS-E10L buffer. Gel filtration was performed using a running buffer (20 mM HEPES (pH 7.5), 100 mM NaCl, 0.005% PSE-C11 or TPS-E10L, 1 μM BI, 100 μM TCEP) to purify T4L-β2AR-Gs complexes. To measure the stability of β2AR-Gs complexes present in PSE-C11 or TPS-E10L, analytical gel filtration was performed with running buffers of the same formulation at 12 hours, 1 day, 3 days, 7 days, and 15 days. After a 15 day-incubation, analytical gel filtration was performed using an amphiphilic compound pre-buffer having the same formulation as above without PSE-C11 or TPS-E10L.\nIn addition, negative staining EM analysis for T4L-β2AR-Gs or β2AR-Gs complexes present in PSE-C11 was performed as follows. Samples containing T4L-β2AR-Gs or β2AR-Gs were prepared to perform electron microscopy analysis using a conventional negative staining protocol (see Peisley, A. et al., G Protein-Coupled Receptors in Drug Discovery: Methods and Protocols, Methods in Molecular Biology, 1335, 29-38 (2015)), and imaging was performed by operating a Tecnai T12 electron microscope at 120 kV at room temperature. Images were recorded with a Gatan US4000 CCD camera at a 71,138×magnification with a defocus value of ˜[…]."}, "[3]": {"target": "T1, uric acid-xanthine/H+ symporter (UapA) (Emericella nidulans, UniProt Q07307, G411V)", "T1 construct": "GFP; made in house; host or cells: Saccharomyces cerevisiae FGY217", "T1 sequence (Q07307 12-574 G411V)": "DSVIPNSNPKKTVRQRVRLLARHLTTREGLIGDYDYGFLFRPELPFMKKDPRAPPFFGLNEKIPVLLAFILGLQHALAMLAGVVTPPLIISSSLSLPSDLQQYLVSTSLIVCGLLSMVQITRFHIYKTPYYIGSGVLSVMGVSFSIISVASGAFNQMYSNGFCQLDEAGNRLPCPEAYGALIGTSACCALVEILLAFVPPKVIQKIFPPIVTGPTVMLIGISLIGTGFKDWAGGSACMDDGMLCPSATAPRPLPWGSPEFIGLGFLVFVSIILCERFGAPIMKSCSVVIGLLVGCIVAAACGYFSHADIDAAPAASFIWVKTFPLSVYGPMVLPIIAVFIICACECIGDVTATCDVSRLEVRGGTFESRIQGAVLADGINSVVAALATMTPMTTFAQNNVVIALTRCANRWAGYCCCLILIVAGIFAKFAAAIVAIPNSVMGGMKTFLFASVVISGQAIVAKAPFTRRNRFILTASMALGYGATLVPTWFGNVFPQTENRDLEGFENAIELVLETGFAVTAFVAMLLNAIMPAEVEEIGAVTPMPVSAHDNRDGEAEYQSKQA", "assay": "thermal stability of UapA by CPM analysis", "parameters": "species or system Aspergillus nidulans", "conditions": "CMC+0.04 wt % and CMC+0.2 wt %, 40° C., 120 minutes", "description": "The ability of TPSs (TPS-As, TPS-Es and TPS-ELs) to stabilize the structure of uric acid-xanthine/H+ symporter (UapA) isolated from Aspergillus nidulans was measured. The structural stability of UapA was evaluated using a sulfhydryl-specific fluorophore, N-[4-(7-diethylamino-4-methyl-3-coumarinyl)phenyl]maleimide (CPM).\nSpecifically, UapAG411V1-11 (hereinafter, referred to as ‘UapA’) was expressed in a Saccharomyces cerevisiae FGY217 strain as a GFP fusion protein, and was isolated using a sample buffer (20 mM Tris (pH 7.5), 150 mM NaCl, 0.03% DDM, 1 mM xanthine). The transporter was concentrated to about 10 mg/mL using a 100 kDa molecular weight cut-off filter (Millipore). The transporter was diluted with a CMC+0.04 wt % or CMC+0.2 wt % buffer at a ratio of 1:150 in a Greiner 96-well plate containing one of TPS-As (TPS-A6, TPS-A7 or TPS-A8), TPS-Es (TPS-E6, TPS-E7 or TPS-E8), TPS-ELs (TPS-E8L, TPS-E9L, TPS-E10L or TPS-E11L), MNG-3 or DDM (control group). […] During incubation, fluorescence emission intensity was monitored using a microplate spectrophotometer set at excitation and emission wavelengths of 387 and 463 nm, respectively. The maximum value of fluorescence intensity was used to calculate the relative percentage of folded transporters during the incubation period. […]"}}}
{"smiles": "CCCCCCCCCCCCO[C@@H]1O[C@H](CO)[C@@H](O[C@H]2O[C@H](CO)[C@@H](O)[C@H](O)[C@H]2O)[C@H](O)[C@H]1O", "note": "[DDM, n-dodecyl-β-D-maltopyranoside, reference compound]", "values": [{"measurement": "stability of T4L-β2AR-Gs complexes", "setting": "[1]", "value": "complex separation was observed even after 2 days of incubation"}]}
{"smiles": "CCCCCCCCCCCOCC(COCCCCCCCCCCC)O[C@@H]1OC(CO[C@@H]2OC(CO)[C@@H](O)C(O)C2O)[C@@H](O[C@@H]2OC(CO)[C@@H](O)C(O)C2O)C(O[C@@H]2OC(CO)[C@@H](O)C(O)C2O)C1O[C@@H]1OC(CO)[C@@H](O)C(O)C1O", "note": "(stereo partly shown) [PSE-C11]", "values": [{"measurement": "stability of β2AR-Gs complexes (analytical gel filtration)", "setting": "[2]; after incubation for 15 and 17 days", "value": "no separation of the complexes was observed at all"}, {"measurement": "stability of complexes", "setting": "[2]; buffer without the amphipathic compound as eluent", "value": "completely stable"}]}
{"smiles": "CCCCCCCCOCC(COCCCCCCCC)(COCCCCCCCC)CO[C@@H]1OC(CO[C@@H]2OC(CO)[C@@H](O)C(O)C2O)[C@@H](O[C@@H]2OC(CO)[C@@H](O)C(O)C2O)C(O[C@@H]2OC(CO)[C@@H](O)C(O)C2O)C1O[C@@H]1OC(CO)[C@@H](O)C(O)C1O", "note": "(stereo partly shown) [TPS-E8]", "values": [{"measurement": "maintaining folding state of UapA (CPM)", "setting": "[3]", "value": "the most excellent among TPS-As/Es"}]}
